The values below come from ChEMBL document CHEMBL1909046, “DrugMatrix in vitro pharmacology data”.

Test [1] in a line: DRUGMATRIX: Sodium/nucleoside co-transporter radioligand binding (ligand: nitrobenzylthioinosine). The test is classed as cell membranes, Cavia porcellus, Dunkin-Hartley, Cerebral cortex, Membrane. As to conditions: Not Active = under 50% inhibition at 10 µM.
Test [2] has as its target Beta-2 adrenergic receptor (Homo sapiens, UniProt P07550). Put plainly: DRUGMATRIX: Adrenergic beta2 radioligand binding (ligand: [3H] CGP-12177). Conditions: cho; Not Active = under 50% inhibition at 10 µM. The test is classed as cell membranes, CHO, Membrane.
For test [3], the target named is Substance-P receptor (Homo sapiens, UniProt P25103). The test is classed as cell membranes, Membrane. Conditions: cho. Also: in other assays of this panel Not Active means under 50% inhibition at 10 µM.
In test [4] the target is T1, Thromboxane-A synthase (Homo sapiens, UniProt P24557).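 Also: enzyme inhibition assay with PGH2 supplied as substrate; in other assays of this panel Not Active means under 50% inhibition at 10 µM.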
T1 sequence (P24557 whole entry): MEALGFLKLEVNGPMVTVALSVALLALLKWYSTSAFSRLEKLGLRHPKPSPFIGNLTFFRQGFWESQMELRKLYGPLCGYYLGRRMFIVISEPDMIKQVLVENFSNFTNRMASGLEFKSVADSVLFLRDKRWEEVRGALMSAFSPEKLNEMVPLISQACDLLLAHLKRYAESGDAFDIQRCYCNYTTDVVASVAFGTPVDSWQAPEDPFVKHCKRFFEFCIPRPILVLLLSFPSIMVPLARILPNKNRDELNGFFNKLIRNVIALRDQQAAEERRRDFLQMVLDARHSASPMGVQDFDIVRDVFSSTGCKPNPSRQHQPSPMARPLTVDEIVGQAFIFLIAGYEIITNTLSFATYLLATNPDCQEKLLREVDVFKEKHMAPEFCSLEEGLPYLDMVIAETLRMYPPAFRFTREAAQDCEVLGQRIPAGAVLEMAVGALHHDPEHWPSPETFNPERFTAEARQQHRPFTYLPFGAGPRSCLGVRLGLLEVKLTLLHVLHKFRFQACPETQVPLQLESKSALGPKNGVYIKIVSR
Kind of test: biochemical. In kind it is tissue-based, Platelet. As to conditions: platelet.

Test [5] concerns the target D(3) dopamine receptor (Homo sapiens, UniProt P35462). Put plainly: DRUGMATRIX: Dopamine D3 radioligand binding (ligand: [3H] Spiperone). The test is classed as cell membranes, CHO, Membrane. Conditions: for IC50: cho.
Test [6] in a line: DRUGMATRIX: GABAA, Muscimol, Central radioligand binding (ligand: [3H] Muscimol). The test is classed as cell membranes, Rattus norvegicus, Wistar, Brain, Membrane. As to conditions: Not Active = under 50% inhibition at 10 µM.
Test [7] addresses T2, Neuropeptide Y receptor type 1 (Homo sapiens, UniProt P25929).
T2 sequence (P25929 whole entry): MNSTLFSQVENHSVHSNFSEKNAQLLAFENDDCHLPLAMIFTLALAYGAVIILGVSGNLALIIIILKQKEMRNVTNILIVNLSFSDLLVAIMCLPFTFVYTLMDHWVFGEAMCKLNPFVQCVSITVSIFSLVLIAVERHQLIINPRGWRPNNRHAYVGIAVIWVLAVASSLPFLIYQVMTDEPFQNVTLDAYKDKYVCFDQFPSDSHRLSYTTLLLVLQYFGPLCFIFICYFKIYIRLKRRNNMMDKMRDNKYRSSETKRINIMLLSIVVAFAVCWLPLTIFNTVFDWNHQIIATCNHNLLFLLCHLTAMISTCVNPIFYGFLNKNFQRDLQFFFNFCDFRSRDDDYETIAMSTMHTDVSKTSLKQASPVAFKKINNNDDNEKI
In kind it is cell membranes, Membrane. As to conditions: sk-n-mc.

Test [8] addresses T3, Nitric oxide synthase, inducible (Mus musculus, UniProt P29477).
T3 sequence (P29477 whole entry): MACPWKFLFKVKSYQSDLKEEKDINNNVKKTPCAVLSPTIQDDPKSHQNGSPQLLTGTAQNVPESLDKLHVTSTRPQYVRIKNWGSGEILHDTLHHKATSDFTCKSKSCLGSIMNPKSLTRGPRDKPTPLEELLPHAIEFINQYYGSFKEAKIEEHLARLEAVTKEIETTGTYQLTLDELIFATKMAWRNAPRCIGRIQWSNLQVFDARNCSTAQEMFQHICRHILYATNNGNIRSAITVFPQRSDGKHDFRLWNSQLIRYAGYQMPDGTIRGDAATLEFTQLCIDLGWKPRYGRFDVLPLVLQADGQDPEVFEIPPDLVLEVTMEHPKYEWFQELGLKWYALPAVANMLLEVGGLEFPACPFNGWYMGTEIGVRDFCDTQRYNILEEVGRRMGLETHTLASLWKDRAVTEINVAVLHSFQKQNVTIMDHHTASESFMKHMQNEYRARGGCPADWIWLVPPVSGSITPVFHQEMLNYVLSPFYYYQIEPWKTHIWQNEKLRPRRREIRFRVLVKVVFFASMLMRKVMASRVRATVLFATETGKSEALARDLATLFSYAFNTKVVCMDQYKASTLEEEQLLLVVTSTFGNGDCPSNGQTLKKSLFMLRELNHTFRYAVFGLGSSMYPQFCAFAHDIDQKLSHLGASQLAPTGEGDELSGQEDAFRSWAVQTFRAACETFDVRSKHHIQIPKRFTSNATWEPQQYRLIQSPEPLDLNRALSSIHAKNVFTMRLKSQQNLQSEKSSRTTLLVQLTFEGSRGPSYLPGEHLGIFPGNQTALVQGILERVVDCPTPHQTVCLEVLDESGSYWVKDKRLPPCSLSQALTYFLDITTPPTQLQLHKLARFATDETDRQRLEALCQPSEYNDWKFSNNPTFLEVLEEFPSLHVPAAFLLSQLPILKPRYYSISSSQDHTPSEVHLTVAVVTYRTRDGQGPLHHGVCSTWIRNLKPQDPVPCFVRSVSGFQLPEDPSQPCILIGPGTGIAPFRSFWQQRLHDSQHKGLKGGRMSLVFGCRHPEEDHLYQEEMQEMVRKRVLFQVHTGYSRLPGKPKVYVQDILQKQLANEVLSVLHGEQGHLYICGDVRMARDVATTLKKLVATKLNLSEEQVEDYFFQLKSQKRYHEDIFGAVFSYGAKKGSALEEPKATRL
Also noted: species or system Escherichia coli.

The term pIC50 denotes −log10 of the IC50, conventionally taken in molar units. The term pKi denotes the Ki on a negative log10 scale, so that one unit is a factor of ten.

pIC50, pKi: −log10 of the molar value.

D(3) dopamine receptor, sequence (P35462 whole entry): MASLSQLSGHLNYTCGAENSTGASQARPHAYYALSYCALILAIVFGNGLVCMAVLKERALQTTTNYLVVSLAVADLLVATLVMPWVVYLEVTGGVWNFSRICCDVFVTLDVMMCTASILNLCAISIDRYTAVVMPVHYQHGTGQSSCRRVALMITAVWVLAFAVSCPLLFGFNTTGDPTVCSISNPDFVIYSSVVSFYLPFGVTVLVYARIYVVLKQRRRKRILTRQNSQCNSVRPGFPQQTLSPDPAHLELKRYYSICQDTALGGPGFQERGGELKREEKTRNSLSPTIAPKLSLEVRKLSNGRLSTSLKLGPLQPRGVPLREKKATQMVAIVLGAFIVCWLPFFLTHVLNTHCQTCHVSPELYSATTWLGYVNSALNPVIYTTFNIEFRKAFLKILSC
Substance-P receptor, sequence (P25103 whole entry): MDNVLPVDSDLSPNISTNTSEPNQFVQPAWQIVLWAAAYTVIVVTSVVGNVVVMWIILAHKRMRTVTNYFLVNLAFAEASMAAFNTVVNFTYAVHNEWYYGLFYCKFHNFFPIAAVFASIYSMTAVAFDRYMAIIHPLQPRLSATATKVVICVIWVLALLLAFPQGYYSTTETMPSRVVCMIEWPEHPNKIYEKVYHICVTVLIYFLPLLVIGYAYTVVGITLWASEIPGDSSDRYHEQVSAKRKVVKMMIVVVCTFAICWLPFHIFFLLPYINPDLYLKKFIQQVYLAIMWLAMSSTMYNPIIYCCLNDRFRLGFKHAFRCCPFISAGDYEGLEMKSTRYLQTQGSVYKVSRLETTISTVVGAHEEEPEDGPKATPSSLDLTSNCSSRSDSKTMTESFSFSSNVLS
Beta-2 adrenergic receptor, sequence (P07550 whole entry): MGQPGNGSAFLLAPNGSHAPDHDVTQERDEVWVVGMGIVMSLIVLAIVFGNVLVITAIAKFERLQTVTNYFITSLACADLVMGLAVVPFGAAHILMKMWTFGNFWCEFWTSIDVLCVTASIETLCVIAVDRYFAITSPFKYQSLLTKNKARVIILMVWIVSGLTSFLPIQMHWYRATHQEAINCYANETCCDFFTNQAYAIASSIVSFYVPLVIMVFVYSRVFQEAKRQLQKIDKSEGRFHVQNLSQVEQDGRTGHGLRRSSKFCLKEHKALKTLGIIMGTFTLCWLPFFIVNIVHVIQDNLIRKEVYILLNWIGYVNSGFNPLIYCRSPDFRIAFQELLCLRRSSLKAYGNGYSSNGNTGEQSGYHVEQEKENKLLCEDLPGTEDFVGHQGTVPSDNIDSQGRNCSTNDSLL

As to `CC(C)(Oc1ccc(C2CC2(Cl)Cl)cc1)C(=O)O` (stereo unspecified) [CIPROFIBRATE], the IC50 result in test [1], in test [2], in test [3], in test [4], in test [5] and in test [6] was “Not Active” throughout. Also, the IC50 entry in test [7] and in test [8] was “Not Active” each time. Further, the Ki entry in test [1] and in test [6] was “Not Active” each time.
As for `Nc1nc(Cl)nc2c1ncn2[C@H]1C[C@H](O)[C@@H](CO)O1` [CLADRIBINE], the IC50 entry in test [1], in test [2], in test [3], in test [4], in test [5] and in test [6] was “Not Active” in each case. Further, the IC50 entry in test [7] and in test [8] was “Not Active” each time. Moreover, the Ki result in test [1] and in test [6] was “Not Active” throughout.
In the case of `CC[C@H]1OC(=O)[C@H](C)[C@@H](O[C@H]2C[C@@](C)(OC)[C@@H](O)[C@H](C)O2)[C@H](C)[C@@H](O[C@@H]2O[C@H](C)C[C@H](N(C)C)[C@H]2O)[C@](C)(OC)C[C@@H](C)C(=O)[C@H](C)[C@@H](O)[C@]1(C)O` [CLARITHROMYCIN], the IC50 entry in test [1], in test [2], in test [3], in test [4], in test [5] and in test [6] was “Not Active” in each case. Moreover, the IC50 result in test [7] and in test [8] was “Not Active” throughout. For the same compound, the Ki entry in test [1] and in test [6] was “Not Active” each time.
As to `CCC[C@@H]1C[C@@H](C(=O)N[C@@H]([C@H]2O[C@H](SC)[C@H](O)[C@@H](O)[C@H]2O)[C@H](C)Cl)N(C)C1` [CLINDAMYCIN], the IC50 entry in test [1], in test [2], in test [3], in test [4], in test [5] and in test [6] was “Not Active” each time. For the same compound, the IC50 entry in test [7] and in test [8] was “Not Active” in each case. The Ki result in test [1] and in test [6] was “Not Active” throughout.
Consider `O=C(O)c1cc(=O)c2c(OCC(O)COc3cccc4oc(C(=O)O)cc(=O)c34)cccc2o1` [CROMOLYN], for which the IC50 entry in test [1], in test [2], in test [3], in test [4], in test [5] and in test [6] was “Not Active” in each case. The IC50 entry in test [7] and in test [8] was “Not Active” each time. Besides, the Ki entry in test [1] and in test [6] was “Not Active” throughout.
In the case of `O=P1(N(CCCl)CCCl)NCCCO1` (stereo unspecified) [CYCLOPHOSPHAMIDE ANHYDROUS], the IC50 result in test [1], in test [2], in test [3], in test [4], in test [5] and in test [6] was “Not Active” in each case. Besides, the IC50 result in test [7] and in test [8] was “Not Active” each time. The Ki entry in test [1] and in test [6] was “Not Active” in each case.
On to `CC(=O)O[C@]1(C(C)=O)CC[C@H]2[C@@H]3C=C(Cl)C4=CC(=O)[C@@H]5C[C@@H]5[C@]4(C)[C@H]3CC[C@@]21C` [CYPROTERONE ACETATE], for which the IC50 result in test [1], in test [2], in test [3], in test [4], in test [5] and in test [6] was “Not Active” each time. The IC50 result in test [7] and in test [8] was “Not Active” throughout. In addition, the Ki result in test [1] and in test [6] was “Not Active” in each case.
As for `Nc1nc(N)nc(NC2CC2)n1` [CYROMAZINE], the IC50 result in test [1], in test [2], in test [3], in test [4], in test [5] and in test [6] was “Not Active” each time. The IC50 result in test [7] and in test [8] was “Not Active” in each case. Also, the Ki result in test [1] and in test [6] was “Not Active” throughout.
As to `C#C[C@]1(O)CC[C@H]2[C@@H]3CCC4=Cc5oncc5C[C@]4(C)[C@H]3CC[C@@]21C` [DANAZOL], the IC50 result in test [1], in test [2], in test [3], in test [4], in test [6] and in test [7] was “Not Active” throughout. Further, the IC50 result in test [8] was “Not Active”. Moreover, the Ki result in test [1] and in test [6] was “Not Active” each time. Moreover, the pIC50 in test [5] (read-out: IC50) is 4.54. In test [5] (read-out: Ki), the negative logarithm of the Ki (pKi) is 5.01.
Take `CCN[C@@H](C)Cc1cccc(C(F)(F)F)c1` [DEXFENFLURAMINE]: the IC50 result in test [1], in test [2], in test [3], in test [4], in test [5] and in test [6] was “Not Active” throughout. In addition, the IC50 result in test [7] and in test [8] was “Not Active” throughout. Besides, the Ki entry in test [1] and in test [6] was “Not Active” throughout.
As to `C[C@H](C(=O)O)c1cccc(C(=O)c2ccccc2)c1` [DEXKETOPROFEN], the IC50 entry in test [1], in test [2], in test [3], in test [4], in test [5] and in test [6] was “Not Active” each time. Also, the IC50 result in test [7] and in test [8] was “Not Active” each time. Moreover, the Ki entry in test [1] and in test [6] was “Not Active” in each case.
As to `CN1C(=O)CN=C(c2ccccc2)c2cc(Cl)ccc21` [DIAZEPAM], the IC50 result in test [1], in test [2], in test [3], in test [4], in test [5] and in test [6] was “Not Active” in each case. Further, the IC50 entry in test [7] and in test [8] was “Not Active” each time. Also, the Ki result in test [1] and in test [6] was “Not Active” in each case.
